Data on five molecules can be found in US20220062317A1, “NA+/K+ ATPASE INHIBITORS FOR USE IN THE PREVENTION OR TREATMENT OF METASTASIS” (UNIVERSITÄT BASEL, priority 2018, published 2022).

Entries after “also recorded” stand apart in the source; their conditions may differ. Counter-ions that a name gives are not always drawn.

The test system of one assay is BR16 CTC-derived cells. The experiment in a line: FDA-approved compound screen for CTC cluster dissociation (high content imaging). The following applies: even at lowest concentration tested (0.1 μM), 2 days, hypoxia. It is filed as cell-based, human. The method, then: In order to identify actionable vulnerabilities of CTC clusters, and to test whether the epigenetic and transcriptional features of clustered CTCs are reversible upon cluster dissociation into single cells the following steps were undertaken. First, the expression of all known cell-cell junction (CCJ) components in patient samples obtained from normal breast (TGCA REF), breast cancer (TOGA REF), single CTCs and CTC clusters were assessed (Aceto et al. Cell 2014). While breast cancer cells tend to only partially reduce their CCJ repertoire compared to normal breast cells, CTCs express only a small fraction of CCJ components, likely as a consequence to their increased motility. Yet, CTC clusters retain a higher number of CCJs as compared to single CTCs. […] To this end, 2′486 FDA-approved compounds were evaluated for their ability to dissociate clusters of human breast CTC-derived cells. Cluster dissociation was assessed using a high content screening microscope and comparing cells treated with each individual compound to steady state clustered BR16 cells and 40 μm-filtered BR16 single cell suspension as negative and positive controls, respectively (FIG. 4a). […] For the majority of the 2′486 FDA-approved compounds, when using a 5 μM concentration for 2 days in hypoxic conditions, no detectable reduction in cell viability (>70% viability) nor mean cluster size (>450 μm2) in BR16 CTC-derived cells was observed. […] These compounds include inhibitors of Na^+/K^+ ATPases (n=6), HDACs (n=2), nucleotide biosynthesis (n=5), kinases (n=4), GPCRs (n=2), cholesterol biosynthesis (n=1), nuclear export (n=1), tubulin (n=9), as well as DNA binding compounds (n=8) and antibiotics (n=1).
A library containing 2,486 FDA-approved compounds was purchased from the Nexus Platform ETH Zurich. Each compound was resuspended using CTC medium at a 15 μM concentration and 20 μl were aliquoted in duplicate in a total of 64 Flat Bottom Clear Ultra Low attachment 96-well plates (Corning, Cat #3474).
To reduce cluster size in CTC derived cell lines, a 40 μm cell strainer was used (Corning, Cat #431750). […] Plates were incubated in hypoxia (5% oxygen) for 2 days and then 20 μl were transferred into a 96 well Black/clear Tissue culture treated plate (BD Falcon, Cat #353219) containing 40 μl of D-PBS (Invitrogen, Cat #14190169) and stained for 1 hr at 37° C. with a final concentration of 4 μM Hoechst 34580 (Invitrogen, Cat #H21486), 2 μM TMRM (Invitrogen, Cat #T668) and 4 μM TOTO-3 (Invitrogen, Cat #T3604). For each plate, two positive controls (non-treated cells) and two negative controls (non-treated and […] cells) were included. Z-factors were calculated per individual plate using the following formula: Z′=1−3(σs+σc)/|μs−μc|^3 (σ: standard deviation, μ: mean, s: positive control and c: negative control) (Martin et al., PLoS One 9, e88338, 2014) and ranged between 0.62-0.937. Plates were scanned using Operetta High Content Imaging System (Perkin Elmer) and cluster analysis was performed using Harmony High Content Imaging and Analysis Software (Perkin Elmer).

For assay [1], the system named is BRx50 human CTC-derived cells. The description is as above. The class given is cell-based. The following applies: even at lowest concentration tested (0.1 μM).
The subject of another assay is BR16 xenografts. The experiment in a line: BR16 xenograft (mammary fat pad), spontaneous CTC clusters and metastasis. The following applies: digoxin 2 mg/kg vs vehicle. The class given is in vivo, NSG mice. The method, then: Blood specimens for CTC analysis were obtained from University Hospital Basel after informed patient consent according to protocol EKNZ BASEC 2016-00067 and EK 321/10, which received ethical approval from the Swiss authorities (EKNZ, Ethics Committee northwest/central Switzerland). An average of 7.5 ml of blood per patient was drawn in EDTA vacutainers. Within 1 hr from blood draw, the blood was processed through Parsortix GEN3D6.5 Cell Separation Cassette (Angle Europe). For mouse studies, blood was retrieved via cardiac puncture and 1 ml of blood was similarly processed through a Parsortix device. Captured CTCs were further stained on Parsortix cassette with EpCAM-AF488 conjugated (CellSignaling, Cat #CST5198), HER2-AF488 (#324410, BioLegend), EGFR-FITC conjugated (GeneTex, Cat #GTX11400) and CD45-BV605 conjugated (Biolegend, Cat #304042 (anti-human); Cat #103140 (anti-mouse)) antibodies. For all other models (xenografts), carrying cancer cells stably expressing a GFP-Luciferase reporter, only anti-CD45 staining was performed, while CTCs were identified based on GFP expression. The number of captured CTCs, including single CTCs, CTC clusters and CTC-WBC clusters, was determined while cells were still in the cassette. CTCs were then released from the cassette in DPBS (#14190169, Gibco) onto ultra-low attachment plates (#3471-COR, Corning). Representative pictures were taken at 40× magnification with Leica DM14000 fluorescent microscope using Leica LAS and analyzed with ImageJ.
For tail vein experiments, NOD SCID Gamma (NSG) mice (Jackson Labs) were injected with 1×10^6 BR16-mCherry cells resuspended in 100 μl D-PBS and monitored with IVIS Lumina II (Perkin Elmer). For CTC xenograft mouse model isolation, 1×10^6 LM2-GFP, 1×10^6 BRx50-GFP or 1×10^6 BR16-GFP cells were resuspended in 100 μl of 50% Cultrex PathClear Reduced Growth Factor Basement Membrane Extract (R&D Biosystems, Cat #3533-010-02) in D-PBS and injected orthotopically in NSG mice. Blood draw was performed 4-5 weeks after tumor onset for LM2 cells, 5-6 months after tumor onset for BR16 and 6-7 months after tumor onset for BRx50 cells.

The next assay deals with LM2 xenografts. The assay is described as follows: LM2 xenograft, spontaneous CTC clusters and metastasis. The following applies: LM2 xenograft, digoxin 2 mg/kg vs vehicle. The class given is in vivo, NSG mice.

Turning to `CC[C@]1(O)C[C@H]2CN(CCc3c([nH]c4ccccc34)[C@@](C(=O)OC)(c3cc4c(cc3OC)N(C=O)[C@H]3[C@@](O)(C(=O)OC)[C@H](OC(C)=O)[C@]5(CC)C=CCN6CC[C@]43[C@@H]65)C2)C1` [vincristine sulfate], the mean cluster size entry (with BR16 CTC-derived cells; in assay [1]) was “significant decrease in mean cluster size” each time.

For `COc1cc([C@@H]2c3cc4c(cc3[C@H](O)[C@H]3COC(=O)[C@H]23)OCO4)cc(OC)c1OC` [podofilox], the mean cluster size entry (with BR16 CTC-derived cells; in assay [1]) was “significant decrease in mean cluster size” each time.

Consider `COc1cc(OC)c(/C=C/S(=O)(=O)Cc2ccc(OC)c(NCC(=O)O)c2)c(OC)c1` [rigosertib], for which the mean cluster size entry (in the assay with BR16 CTC-derived cells; in assay [1]) was “significant decrease in mean cluster size” throughout.

For `COc1cc2c(c(OC)c1OC)-c1ccc(OC)c(=O)cc1[C@@H](NC(C)=O)CC2` [colchicine], the mean cluster size result (with BR16 CTC-derived cells; in assay [1]) was “significant decrease in mean cluster size” in each case.

As to `C[C@H]1O[C@@H](O[C@H]2[C@@H](O)C[C@H](O[C@H]3[C@@H](O)C[C@H](O[C@H]4CC[C@@]5(C)[C@H](CC[C@@H]6[C@@H]5C[C@@H](O)[C@]5(C)[C@@H](C7=CC(=O)OC7)CC[C@]65O)C4)O[C@@H]3C)O[C@@H]2C)C[C@H](O)[C@@H]1O` [digoxin, Digoxin], in the assay on BR16 xenografts, the “metastasis (metastatic index)” value is given as “suppresses metastasis”, the “number of CTC clusters” value was “clear decrease”, the “number of CTC-neutrophil clusters” value is “clear decrease” and the “tumor size / tumor growth rate over time” value is “No significant differences are observed; also recorded: no significant difference”. In addition, in the assay on LM2 xenografts, the “formation of CTC clusters (CTC fold change)” value was “reduced the formation”, the “formation of CTC-neutrophil clusters (CTC fold change)” value is “reduced the formation”, the overall survival entry is on record as “prolonged overall survival” and the “tumor size / tumor growth rate over time” value was “No significant differences are observed; also recorded: no significant difference”. In addition, the overall survival entry with LM2 xenografts (listed as Digoxin) was “prolongs overall survival”.
